Reference: ChEMBL document CHEMBL5223149, “The Emerging Landscape of Small-Molecule Therapeutics for the Treatment of Huntington's Disease” (J Med Chem, 2022)
Converted amounts (≈) assume the structure as drawn. Values belong to the molecule of their own block, whether it stands above or below them.

Experiments:
Huntingtin [1] = molecular target: T1, Huntingtin (Homo sapiens, UniProt P42858); assay: Inhibition of mutant HTT (unknown origin) mediated HD exon 1 protein aggregation
Target sequence in this assay (P42858 whole entry, looked up, change not shown): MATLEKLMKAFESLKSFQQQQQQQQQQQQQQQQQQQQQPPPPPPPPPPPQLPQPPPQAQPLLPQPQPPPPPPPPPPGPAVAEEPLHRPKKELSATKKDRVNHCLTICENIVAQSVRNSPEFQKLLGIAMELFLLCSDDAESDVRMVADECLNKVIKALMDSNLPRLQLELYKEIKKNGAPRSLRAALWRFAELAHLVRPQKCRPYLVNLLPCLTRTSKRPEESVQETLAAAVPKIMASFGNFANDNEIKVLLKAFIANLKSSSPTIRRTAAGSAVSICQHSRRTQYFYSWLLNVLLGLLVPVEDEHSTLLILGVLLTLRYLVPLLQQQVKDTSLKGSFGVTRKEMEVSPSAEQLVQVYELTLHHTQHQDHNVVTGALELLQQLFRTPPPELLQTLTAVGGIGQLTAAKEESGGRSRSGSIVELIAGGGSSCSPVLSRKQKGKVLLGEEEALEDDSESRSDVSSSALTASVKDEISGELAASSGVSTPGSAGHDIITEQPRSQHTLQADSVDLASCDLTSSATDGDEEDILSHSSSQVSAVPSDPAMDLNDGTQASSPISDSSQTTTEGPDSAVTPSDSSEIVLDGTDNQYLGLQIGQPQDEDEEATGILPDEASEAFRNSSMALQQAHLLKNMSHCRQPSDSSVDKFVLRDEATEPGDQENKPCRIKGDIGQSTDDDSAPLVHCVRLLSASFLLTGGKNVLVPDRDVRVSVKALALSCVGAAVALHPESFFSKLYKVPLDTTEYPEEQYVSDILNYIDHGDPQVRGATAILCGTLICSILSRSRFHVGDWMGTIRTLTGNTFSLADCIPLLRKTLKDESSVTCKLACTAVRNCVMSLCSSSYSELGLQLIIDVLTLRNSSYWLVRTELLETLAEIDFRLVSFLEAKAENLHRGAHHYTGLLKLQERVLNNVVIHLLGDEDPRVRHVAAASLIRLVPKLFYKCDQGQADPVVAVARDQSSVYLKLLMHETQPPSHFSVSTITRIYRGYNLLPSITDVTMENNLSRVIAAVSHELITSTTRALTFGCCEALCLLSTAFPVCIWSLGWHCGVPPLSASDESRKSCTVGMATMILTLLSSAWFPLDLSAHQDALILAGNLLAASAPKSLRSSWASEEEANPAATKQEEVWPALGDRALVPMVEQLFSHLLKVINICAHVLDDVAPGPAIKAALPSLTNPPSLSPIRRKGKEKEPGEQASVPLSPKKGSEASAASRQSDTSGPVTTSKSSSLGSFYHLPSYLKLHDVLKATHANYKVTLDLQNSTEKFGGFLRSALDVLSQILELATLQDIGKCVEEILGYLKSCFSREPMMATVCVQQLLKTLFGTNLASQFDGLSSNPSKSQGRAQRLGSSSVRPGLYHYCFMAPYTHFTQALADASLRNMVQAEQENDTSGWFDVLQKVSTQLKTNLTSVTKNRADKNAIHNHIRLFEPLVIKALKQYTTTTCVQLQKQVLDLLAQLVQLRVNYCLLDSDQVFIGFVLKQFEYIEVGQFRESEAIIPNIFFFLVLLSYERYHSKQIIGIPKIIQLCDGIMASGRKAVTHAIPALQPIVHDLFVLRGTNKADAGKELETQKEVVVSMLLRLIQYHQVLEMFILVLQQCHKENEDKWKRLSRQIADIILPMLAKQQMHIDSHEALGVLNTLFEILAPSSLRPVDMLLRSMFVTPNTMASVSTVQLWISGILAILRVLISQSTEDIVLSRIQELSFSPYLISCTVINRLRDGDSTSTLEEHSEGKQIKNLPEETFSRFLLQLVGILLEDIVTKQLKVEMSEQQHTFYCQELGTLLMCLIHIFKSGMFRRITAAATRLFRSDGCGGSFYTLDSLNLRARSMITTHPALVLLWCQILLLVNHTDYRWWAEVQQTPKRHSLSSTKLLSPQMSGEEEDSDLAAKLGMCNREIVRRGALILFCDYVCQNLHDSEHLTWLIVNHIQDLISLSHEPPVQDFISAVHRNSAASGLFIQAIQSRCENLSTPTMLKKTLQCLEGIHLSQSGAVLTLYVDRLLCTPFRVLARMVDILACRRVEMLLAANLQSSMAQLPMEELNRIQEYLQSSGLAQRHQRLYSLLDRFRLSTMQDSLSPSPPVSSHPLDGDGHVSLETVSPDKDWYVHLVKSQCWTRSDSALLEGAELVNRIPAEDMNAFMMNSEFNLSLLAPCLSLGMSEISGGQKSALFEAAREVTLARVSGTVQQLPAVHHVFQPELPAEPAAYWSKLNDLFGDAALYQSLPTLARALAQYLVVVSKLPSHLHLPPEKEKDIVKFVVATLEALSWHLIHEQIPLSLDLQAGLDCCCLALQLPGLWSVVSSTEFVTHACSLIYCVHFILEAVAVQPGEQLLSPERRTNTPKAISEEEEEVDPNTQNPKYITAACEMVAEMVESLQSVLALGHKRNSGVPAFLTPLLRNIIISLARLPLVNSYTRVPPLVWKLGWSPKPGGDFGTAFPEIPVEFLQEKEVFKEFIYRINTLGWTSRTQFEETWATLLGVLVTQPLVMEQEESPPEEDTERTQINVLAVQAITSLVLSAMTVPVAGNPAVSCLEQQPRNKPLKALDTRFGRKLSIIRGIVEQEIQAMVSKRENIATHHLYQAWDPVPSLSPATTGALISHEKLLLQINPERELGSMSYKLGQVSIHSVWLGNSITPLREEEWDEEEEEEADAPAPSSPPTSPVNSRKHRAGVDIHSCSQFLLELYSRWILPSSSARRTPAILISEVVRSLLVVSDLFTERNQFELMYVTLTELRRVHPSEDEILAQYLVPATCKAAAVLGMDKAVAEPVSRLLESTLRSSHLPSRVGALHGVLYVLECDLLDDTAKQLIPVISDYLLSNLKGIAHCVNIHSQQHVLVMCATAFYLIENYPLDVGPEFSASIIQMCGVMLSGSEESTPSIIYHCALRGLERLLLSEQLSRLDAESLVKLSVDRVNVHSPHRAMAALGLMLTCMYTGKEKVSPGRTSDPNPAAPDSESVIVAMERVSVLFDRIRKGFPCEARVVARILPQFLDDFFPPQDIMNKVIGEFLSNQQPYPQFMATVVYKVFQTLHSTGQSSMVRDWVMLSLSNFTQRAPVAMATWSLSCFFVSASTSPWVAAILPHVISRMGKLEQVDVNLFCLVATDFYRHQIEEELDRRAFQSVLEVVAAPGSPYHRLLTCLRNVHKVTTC

[2] = molecular target: T2, Muscleblind-like protein 1 (Homo sapiens, UniProt Q9NR56); assay: Binding affinity to MBNL1 (unknown origin)
T2 sequence (Q9NR56 whole entry): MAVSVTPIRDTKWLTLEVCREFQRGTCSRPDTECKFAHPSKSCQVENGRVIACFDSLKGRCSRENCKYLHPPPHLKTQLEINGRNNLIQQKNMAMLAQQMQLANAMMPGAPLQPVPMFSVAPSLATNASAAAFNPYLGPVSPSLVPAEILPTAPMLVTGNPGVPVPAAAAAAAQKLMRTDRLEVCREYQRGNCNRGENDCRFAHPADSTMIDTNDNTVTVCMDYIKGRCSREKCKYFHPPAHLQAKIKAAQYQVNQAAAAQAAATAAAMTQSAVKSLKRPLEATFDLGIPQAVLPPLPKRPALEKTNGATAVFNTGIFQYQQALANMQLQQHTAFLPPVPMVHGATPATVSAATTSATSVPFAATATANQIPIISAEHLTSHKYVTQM

[3] = Inhibition of PDI (unknown origin); parameters: species or system Homo sapiens
Histone deacetylase 4 = Histone deacetylase 4 (Homo sapiens, UniProt P56524); assay: Inhibition of HDAC4 (unknown origin)
Huntingtin [4] = molecular target: T1, Huntingtin; assay: Inhibition of HTT (unknown origin)
Target sequence in this assay (P42858 whole entry): as the sequence (P42858 whole entry, looked up, change not shown) above

Homo sapiens = organism: Homo sapiens; assay: Activation of TrkB Y816 mutant (unknown origin) at 1 mM relative to control; conditions: filed as activator
[5] = molecular target: T3, 1-phosphatidylinositol 4,5-bisphosphate phosphodiesterase gamma-1 (Homo sapiens) (UniProt P19174); assay: Activation of PLCgamma1 (unknown origin) at 1 mM relative to control; conditions: filed as activator
T3 sequence (whole entry): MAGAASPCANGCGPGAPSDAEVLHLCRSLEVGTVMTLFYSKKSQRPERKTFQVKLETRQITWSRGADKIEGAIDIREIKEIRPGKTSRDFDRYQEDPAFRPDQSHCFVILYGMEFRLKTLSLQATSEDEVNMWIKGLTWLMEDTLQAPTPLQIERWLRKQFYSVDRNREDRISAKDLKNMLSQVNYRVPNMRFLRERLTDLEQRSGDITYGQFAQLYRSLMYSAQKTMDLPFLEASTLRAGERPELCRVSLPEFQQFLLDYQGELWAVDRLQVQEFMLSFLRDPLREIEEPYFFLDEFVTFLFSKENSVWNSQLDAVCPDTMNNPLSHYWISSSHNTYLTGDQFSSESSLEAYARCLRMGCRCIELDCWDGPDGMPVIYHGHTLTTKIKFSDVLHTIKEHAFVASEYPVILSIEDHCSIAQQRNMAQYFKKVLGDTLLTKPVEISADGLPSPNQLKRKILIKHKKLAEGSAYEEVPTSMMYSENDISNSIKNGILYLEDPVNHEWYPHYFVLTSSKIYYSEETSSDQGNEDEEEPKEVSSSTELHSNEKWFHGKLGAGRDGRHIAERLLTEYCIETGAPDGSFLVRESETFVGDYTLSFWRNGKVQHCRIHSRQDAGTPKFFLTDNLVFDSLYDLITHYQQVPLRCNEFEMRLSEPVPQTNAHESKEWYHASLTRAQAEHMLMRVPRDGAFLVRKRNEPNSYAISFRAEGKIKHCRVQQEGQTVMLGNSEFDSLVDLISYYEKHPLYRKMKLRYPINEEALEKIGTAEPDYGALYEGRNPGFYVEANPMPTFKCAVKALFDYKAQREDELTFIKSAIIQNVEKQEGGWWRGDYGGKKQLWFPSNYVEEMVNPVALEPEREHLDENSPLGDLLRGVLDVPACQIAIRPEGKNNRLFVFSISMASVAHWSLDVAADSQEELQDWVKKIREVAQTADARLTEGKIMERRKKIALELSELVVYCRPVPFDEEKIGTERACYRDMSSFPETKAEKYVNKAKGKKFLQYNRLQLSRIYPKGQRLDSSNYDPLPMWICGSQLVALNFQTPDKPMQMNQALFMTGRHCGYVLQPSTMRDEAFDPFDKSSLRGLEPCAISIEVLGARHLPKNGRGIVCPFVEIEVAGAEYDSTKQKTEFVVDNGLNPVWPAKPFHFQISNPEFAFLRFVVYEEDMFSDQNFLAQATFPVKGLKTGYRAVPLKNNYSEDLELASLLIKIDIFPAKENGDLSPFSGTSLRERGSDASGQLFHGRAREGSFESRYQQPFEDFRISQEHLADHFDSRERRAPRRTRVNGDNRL

[6] = molecular target: Mitogen-activated protein kinase 14 (Homo sapiens, UniProt Q16539); assay: Inhibition of p38alpha (unknown origin)
[7] = molecular target: Mitogen-activated protein kinase 10 (Homo sapiens, UniProt P53779); assay: Inhibition of JNK3 (unknown origin)
Huntingtin [8] = molecular target: T1, Huntingtin; assay: Inhibition of mutant HTT (unknown origin)
Target sequence in this assay (P42858 whole entry, looked up, change not shown): as the sequence (P42858 whole entry, looked up, change not shown) above

[9] = system: Huntingtin (Homo sapiens), P42858 [UNDEFINED MUTATION]; assay: Inhibition of mutant HTT (unknown origin) at 100 nM relative to control
[10] = molecular target: cAMP and cAMP-inhibited cGMP 3',5'-cyclic phosphodiesterase 10A (Homo sapiens, UniProt Q9Y233); assay: Inhibition of PDE10A (unknown origin)
[11] = Solubility of the compound; assay type: physicochemical
[12] = molecular target: Kynurenine 3-monooxygenase (Homo sapiens, UniProt O15229); assay: Inhibition of KMO (unknown origin)
[13] = molecular target: NAD(P)H dehydrogenase [quinone] 1 (Homo sapiens) (UniProt P15559); assay: Inhibition of NQO1 (unknown origin)

Mitogen-activated protein kinase 10, sequence (P53779 whole entry): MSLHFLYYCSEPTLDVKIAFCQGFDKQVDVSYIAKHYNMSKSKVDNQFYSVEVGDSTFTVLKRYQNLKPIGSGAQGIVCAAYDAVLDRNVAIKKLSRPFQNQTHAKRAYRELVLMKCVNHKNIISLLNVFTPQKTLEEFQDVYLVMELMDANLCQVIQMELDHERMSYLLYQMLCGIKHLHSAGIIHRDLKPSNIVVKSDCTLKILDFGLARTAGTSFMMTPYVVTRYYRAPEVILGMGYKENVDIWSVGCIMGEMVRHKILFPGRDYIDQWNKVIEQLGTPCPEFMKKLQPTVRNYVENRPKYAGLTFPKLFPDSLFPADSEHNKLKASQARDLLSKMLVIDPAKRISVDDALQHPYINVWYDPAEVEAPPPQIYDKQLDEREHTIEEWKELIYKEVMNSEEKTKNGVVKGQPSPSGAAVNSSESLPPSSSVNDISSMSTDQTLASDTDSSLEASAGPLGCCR
Mitogen-activated protein kinase 14, sequence (Q16539 whole entry): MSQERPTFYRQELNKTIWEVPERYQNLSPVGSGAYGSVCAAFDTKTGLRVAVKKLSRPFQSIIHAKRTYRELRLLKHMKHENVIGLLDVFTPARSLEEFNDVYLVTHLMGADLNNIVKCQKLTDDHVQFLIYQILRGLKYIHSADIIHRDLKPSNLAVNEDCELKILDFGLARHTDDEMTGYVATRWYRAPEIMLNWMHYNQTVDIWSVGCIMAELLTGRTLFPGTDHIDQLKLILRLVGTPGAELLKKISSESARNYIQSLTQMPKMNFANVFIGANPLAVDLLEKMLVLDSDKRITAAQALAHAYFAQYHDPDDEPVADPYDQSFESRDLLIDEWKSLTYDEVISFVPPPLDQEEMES
cAMP and cAMP-inhibited cGMP 3',5'-cyclic phosphodiesterase 10A, sequence (Q9Y233 whole entry): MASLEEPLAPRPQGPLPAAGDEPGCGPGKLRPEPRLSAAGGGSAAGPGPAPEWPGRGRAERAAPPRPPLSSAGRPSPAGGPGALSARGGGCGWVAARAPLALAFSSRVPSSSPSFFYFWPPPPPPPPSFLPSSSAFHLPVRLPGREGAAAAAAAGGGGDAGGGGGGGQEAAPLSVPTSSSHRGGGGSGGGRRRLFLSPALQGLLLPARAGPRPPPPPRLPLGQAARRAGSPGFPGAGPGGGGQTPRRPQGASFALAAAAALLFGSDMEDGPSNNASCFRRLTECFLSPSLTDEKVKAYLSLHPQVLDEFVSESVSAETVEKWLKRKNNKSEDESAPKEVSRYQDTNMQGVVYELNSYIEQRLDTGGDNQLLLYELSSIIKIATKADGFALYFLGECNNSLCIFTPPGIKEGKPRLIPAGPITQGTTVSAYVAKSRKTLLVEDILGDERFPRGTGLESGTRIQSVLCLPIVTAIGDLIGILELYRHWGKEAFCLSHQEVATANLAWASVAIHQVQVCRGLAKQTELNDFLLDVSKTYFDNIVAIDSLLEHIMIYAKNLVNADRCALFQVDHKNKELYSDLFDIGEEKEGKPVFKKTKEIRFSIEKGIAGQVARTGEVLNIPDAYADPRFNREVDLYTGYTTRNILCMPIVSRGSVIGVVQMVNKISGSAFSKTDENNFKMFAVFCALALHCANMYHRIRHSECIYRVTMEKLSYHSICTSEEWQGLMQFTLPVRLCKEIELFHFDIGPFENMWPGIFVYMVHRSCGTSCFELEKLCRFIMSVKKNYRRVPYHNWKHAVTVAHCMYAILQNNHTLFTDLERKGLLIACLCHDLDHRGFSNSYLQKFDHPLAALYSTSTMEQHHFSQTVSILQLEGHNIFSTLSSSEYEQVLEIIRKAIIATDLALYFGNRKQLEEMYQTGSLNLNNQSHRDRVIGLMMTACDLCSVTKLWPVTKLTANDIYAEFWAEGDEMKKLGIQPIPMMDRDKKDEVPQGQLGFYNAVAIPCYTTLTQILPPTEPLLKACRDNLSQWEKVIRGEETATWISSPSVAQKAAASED
Huntingtin (Homo sapiens), P42858 [UNDEFINED MUTATION], sequence (P42858 whole entry, looked up, change not shown): as the sequence (P42858 whole entry, looked up, change not shown) above

SMILES: CN(C)c1nc2ccc(O)cc2s1
IC50 (Huntingtin [1]): 100000 nM

SMILES: COC(=O)C1(C)c2[nH]c3ccccc3c2CCN1C(=O)CCl (stereo not drawn)
EC50 [3]: 1500 nM | IC50 [3]: 22 µg/mL (≈ 68.6 µM)

SMILES: C[C@H]1CCCN1[C@@H](C)NC(=O)c1ccc(-c2noc(C(F)(F)F)n2)cc1
IC50 (Histone deacetylase 4): 40 nM

SMILES: Nn1cnc2c(c1=O)C1(CCCC1)Cc1ccccc1-2
EC50 (Huntingtin [8]): 4900 nM

SMILES: C=CCNc1ncnc2ccc(Br)cc12
EC50 (Huntingtin [8]): > 50000 nM

SMILES: CC(C)C(C)Nc1cc(-c2[nH]c(SCCO)nc2-c2ccc(F)cc2)ccn1 (stereo not drawn)
IC50 [7]: 181 nM

SMILES: COC(C)CC(C)Nc1cc(-c2c(-c3ccc(F)cc3)nc(S/C=C\C(=O)O)n2CC(OC)OC)ccn1 (stereo not drawn)
IC50 [6]: 34 nM | IC50 [7]: 26 nM

SMILES: Nc1nc(C(=O)N2N=C3CCCCC3C2(O)C(F)(F)F)cs1 (stereo not drawn)
IC50 (Huntingtin [4]): 1800 nM

SMILES: CSc1nc(C)c(-c2ccnc(Nc3ccc(N4CCOCC4)cc3)c2)[nH]1
IC50 [6]: > 10000 nM

SMILES: O=c1c(O)c(-c2cc(O)c(O)c(O)c2)oc2cc(O)cc(O)c12 [MYRICETIN]
Kd [2]: 0.25 nM

SMILES: C[C@@H](N)[C@H]1CC[C@H](C(=O)Nc2ccncc2)CC1 [Y-27632]
IC50 (Huntingtin [4]): 5000 nM

SMILES: COc1ccc2c(c1)Cc1cccc(-c3cc(=O)cc(N4CCOCC4)o3)c1S2
solubility [11]: 11 µg/mL (≈ 27 µM)

SMILES: C/C(=C/C(=O)c1ccc(Cl)cc1)Nc1cccc(O)c1
EC50 (Huntingtin [8]): 17400 nM

SMILES: O=C(O)c1cc(-c2ccc(Cl)c(Cl)c2)ncn1
IC50 [12]: 600 nM

SMILES: C[C@@H]1CN(CC(=O)Nc2ccc3c(c2)Cc2cccc(-c4cc(=O)cc(N5CCOCC5)o4)c2S3)C[C@H](C)O1
solubility [11]: 46 µg/mL (≈ 84 µM)

Now from value to molecule:

Kd [2]: 93 nM
SMILES: COc1ccc(C(=O)c2nc3c(c(-c4ccccc4)c2N)c(=O)oc2ccccc23)cc1

Kd [2]: 4 nM
SMILES: COc1ccc(C(=O)c2nc3c(c(-c4ccccc4)c2N)c(=O)oc2ccc(Br)cc23)cc1

IC50 (Huntingtin [4]): 12000 nM
SMILES: CCCc1cc(OC(=O)c2ccccc2F)n(-c2cccc(F)c2)n1

Activity (Homo sapiens): 90% | Activity [5]: 400%
SMILES: O=c1cc(-c2ccccc2)oc2c(O)c(O)ccc12

IC50 [6]: 24 nM | IC50 [7]: 433 nM
SMILES: Clc1ccc(-c2[nH]ncc2-c2ccncn2)cc1

IC50 (Huntingtin [4]): 7500 nM
SMILES: Cc1cccc(OCC(=O)Nc2ccc(Nc3ccccc3)cc2)c1

inhibition [9]: 32%
SMILES: O=c1cc(-c2ccccc2)c2c(O)cc(O)cc2o1

IC50 [10]: 17 nM
SMILES: Cc1ccc2c(c1)nc(CCc1coc3ccc(Br)cc3c1=O)n2-c1ccccc1

CD [13]: 0.15 µM
SMILES: O=[N+]([O-])c1ccc(Sc2nnc(COc3ccccc3)n2-c2ccccc2)nc1
